Source: paper PMC12310023 (PLOS Neglected Tropical Diseases, 2025)
Like-named read-outs stand apart in the source and are kept apart here.

How the values were obtained:
[1] = HCT-8 host cell count (Calibr); details: human
C. hominis TU502 isolate = test: Calibr high-content imaging Cryptosporidium panel; assay type: cell-based, Cryptosporidium hominis; details: Cryptosporidium hominis
[2] = tested on: C. parvum U AZ Laboratory isolate; test: microbe, parasite or virus in culture; assay type: cell-based, Cryptosporidium parvum; details: Cryptosporidium parvum; for EC50: Calibr Crypto Panel 2, 2018-06-18, read-out: Sterling Lab C. parvum Spot Count EC50; for EC90: Calibr Crypto Panel 2, read-out: Sterling Lab C. parvum Spot Count EC90
[3] = tested on: C. parvum Zambriski Laboratory isolate; test: Calibr high-content imaging Cryptosporidium panel; assay type: cell-based, Cryptosporidium parvum; details: Cryptosporidium parvum; for EC50: read-out: Wild C. parvum Spot Count EC50; for EC90: read-out: Wild C. parvum Spot Count EC90
[4] = tested on: C. parvum Bunch Grass Farms isolate; test: Calibr high-content imaging Cryptosporidium panel; assay type: cell-based, Cryptosporidium parvum; details: Cryptosporidium parvum
NLuc C. parvum (Calibr) = test: Calibr panel, UA Nanoluc C. parvum count; assay type: cell-based; details: Cryptosporidium parvum; for EC50: read-out: UA Nanoluc C. parvum Count EC50; for EC90: read-out: UA Nanoluc C. parvum Count EC90
72H HEK293T Cytotoxicity = assay type: cell-based; details: human, HEK293T cells
PPARУ = biological target: T1, PPARУ (Homo sapiens, UniProt P37231); test: Cerep cellular and nuclear receptor functional assay; assay type: cell-based; details: read-out: IC50, antagonist effect
T1 construct: Cerep (Eurofins, France)
T1 sequence (P37231 1-505): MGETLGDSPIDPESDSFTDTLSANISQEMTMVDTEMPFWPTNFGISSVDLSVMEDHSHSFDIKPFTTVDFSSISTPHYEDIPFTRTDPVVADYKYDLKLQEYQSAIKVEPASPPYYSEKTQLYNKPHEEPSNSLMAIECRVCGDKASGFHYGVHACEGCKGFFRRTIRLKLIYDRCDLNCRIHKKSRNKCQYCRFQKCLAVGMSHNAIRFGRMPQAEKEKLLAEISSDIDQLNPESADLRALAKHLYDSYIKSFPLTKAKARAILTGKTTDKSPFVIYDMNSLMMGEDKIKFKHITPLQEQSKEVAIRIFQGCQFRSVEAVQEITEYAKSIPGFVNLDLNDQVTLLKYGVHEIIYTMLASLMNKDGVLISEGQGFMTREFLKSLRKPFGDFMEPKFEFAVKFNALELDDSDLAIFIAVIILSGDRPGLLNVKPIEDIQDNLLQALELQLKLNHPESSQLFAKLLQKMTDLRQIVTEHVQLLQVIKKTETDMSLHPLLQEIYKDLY

5-HT2B = biological target: T2, 5-HT2B (Homo sapiens, UniProt P41595); test: as above; assay type: cell-based; details: read-out: IC50, antagonist effect
T2 construct: Cerep (Eurofins, France)
T2 sequence (P41595 whole entry): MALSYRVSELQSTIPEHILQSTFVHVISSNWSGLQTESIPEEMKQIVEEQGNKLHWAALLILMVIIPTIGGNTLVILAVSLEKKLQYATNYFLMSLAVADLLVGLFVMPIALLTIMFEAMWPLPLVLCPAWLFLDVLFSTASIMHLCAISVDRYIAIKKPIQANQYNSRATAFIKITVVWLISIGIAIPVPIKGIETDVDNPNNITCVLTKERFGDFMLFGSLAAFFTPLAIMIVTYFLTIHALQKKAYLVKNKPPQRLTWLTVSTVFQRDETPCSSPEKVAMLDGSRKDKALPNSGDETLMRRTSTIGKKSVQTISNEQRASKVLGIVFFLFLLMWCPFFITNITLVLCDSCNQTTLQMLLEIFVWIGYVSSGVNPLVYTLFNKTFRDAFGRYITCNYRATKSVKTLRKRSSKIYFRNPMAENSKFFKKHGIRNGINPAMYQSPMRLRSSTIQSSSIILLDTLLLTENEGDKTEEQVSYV

[5] = CC50, HCT-8 cells infected with BGF Cp, Replicate 1
[6] = CC50, HCT-8 cells infected with BGF Cp, Replicate 2
[7] = CC50, HCT-8 cells infected with Ch, Replicate 1
[8] = CC50, HCT-8 cells infected with Ch, Replicate 2
[9] = CC50, HCT-8 cells infected with UA Nluc Cp, Replicate 1
[10] = CC50, HCT-8 cells infected with UA Nluc Cp, Replicate 2
[11] = HCT-8 Cell Count CC50, host cells infected with Sterling oocysts
[12] = read-out: C. hominis Spot Count EC50, Calibr Crypto Panel 2, 2018-07-02
[13] = read-out: C. hominis Spot Count EC90, Calibr Crypto Panel 2
[14] = read-out: TU502 C. hominis Count EC50, Replicate 1
[15] = read-out: TU502 C. hominis Count EC50, Replicate 2
[16] = read-out: TU502 C. hominis Count EC90, Replicate 1
[17] = read-out: TU502 C. hominis Count EC90, Replicate 2
[18] = read-out: Bunch Grass Farm C. parvum Count EC50, Crypto Panel 3 Replicate 1
[19] = read-out: Bunch Grass Farm C. parvum Count EC50, Crypto Panel 3 Replicate 2
[20] = read-out: Bunch Grass Farm C. parvum Count EC90, Replicate 1
[21] = read-out: Bunch Grass Farm C. parvum Count EC90, Replicate 2
[22] = read-out: Bunch Grass Farm C. parvum Spot Count EC50, Calibr Crypto Panel 2
[23] = read-out: Bunch Grass Farm C. parvum Spot Count EC90, Calibr Crypto Panel 2
[24] = Replicate 1, read-out: TU502 C. hominis Count EC50
[25] = Replicate 1, read-out: TU502 C. hominis Count EC90
[26] = Replicate 2, read-out: TU502 C. hominis Count EC50
[27] = Replicate 2, read-out: TU502 C. hominis Count EC90
[28] = Crypto Panel 3 Replicate 1, read-out: Bunch Grass Farm C. parvum Count EC50
[29] = Crypto Panel 3 Replicate 2, read-out: Bunch Grass Farm C. parvum Count EC50
[30] = Replicate 1, read-out: Bunch Grass Farm C. parvum Count EC90
[31] = Replicate 2, read-out: Bunch Grass Farm C. parvum Count EC90

Compound | CC50 [1, 5] [nM] | CC50 [1, 6] [nM] | CC50 [1, 7] [nM] | CC50 [1, 8] [nM] | CC50 [1, 9] [nM] | CC50 [1, 10] [nM] | CC50 [1, 11] [nM] | EC50 (C. hominis TU502 isolate; [12]) [nM] | EC90 (C. hominis TU502 isolate; [13]) [nM] | EC50 (C. hominis TU502 isolate; [14]) [nM] | EC50 (C. hominis TU502 isolate; [15]) [nM] | EC90 (C. hominis TU502 isolate; [16]) [nM] | EC90 (C. hominis TU502 isolate; [17]) [nM] | EC50 [2] [nM] | EC90 [2] [nM] | EC50 (NLuc C. parvum (Calibr); Replicate 1) [nM] | EC90 (NLuc C. parvum (Calibr); Replicate 1) [nM] | EC50 (NLuc C. parvum (Calibr); Replicate 2) [nM] | EC90 (NLuc C. parvum (Calibr); Replicate 2) [nM] | CC50 at 72 h (72H HEK293T Cytotoxicity) [nM] | other results
O=c1[nH]c(=O)n([C@H]2C[C@H](O)[C@@H](CO)O2)cc1F [5-fluoro-2'-deoxyuridine] | 192 | 80.3 | 71.8 | 9.05 | 196 | 43 | 79 | 33.5 | 679 | 51.1 | 29.2 | 196 | 222 | 3.67 | 9.97 | 43.1 | 158 | 33.1 | 117 | 7.23 | EC50 [3]: 5.29 nM; EC90 [3]: 80.4 nM; EC50 [4, 18]: 39.7 nM; EC50 [4, 19]: 29 nM; EC90 [4, 20]: 68.8 nM; EC90 [4, 21]: 86 nM; EC50 [4, 22]: 3.1 nM; EC90 [4, 23]: 11.7 nM
CC(C)/N=c1\cc2n(-c3ccc(Cl)cc3)c3ccccc3nc-2cc1Nc1ccc(Cl)cc1 [Clofazimine] | > 25000 | > 25000 | > 25000 | > 25000 | > 25000 | > 25000 | – | – | – | – | – | – | – | – | – | 23.6 | 392 | 67 | 1370 | – | EC50 (C. hominis TU502 isolate; [24]): 517 nM; EC90 (C. hominis TU502 isolate; [25]): 1190 nM; EC50 (C. hominis TU502 isolate; [26]): 707 nM; EC90 (C. hominis TU502 isolate; [27]): 1520 nM; EC50 [4, 28]: 119 nM; EC50 [4, 29]: 678 nM; EC90 [4, 30]: 2710 nM; EC90 [4, 31]: 1170 nM
O=C(Nc1ccccc1)c1cc([N+](=O)[O-])ccc1Cl [GW 9662, reference compound] | – | – | – | – | – | – | – | – | – | – | – | – | – | – | – | – | – | – | – | – | IC50 (PPARУ): 34 nM
CC(=O)Oc1ccccc1C(=O)Nc1ncc([N+](=O)[O-])s1 [Nitazoxanide] | > 30000 | > 30000 | > 30000 | > 30000 | > 30000 | > 30000 | 19900 | – | – | – | – | – | – | 3940 | 20800 | > 30000 | > 30000 | 4760 | 25000 | 40300 | EC50 (C. hominis TU502 isolate; Calibr Crypto Panel 2, 2018-07-02, read-out: C. hominis Spot Count EC50): 5820 nM; EC90 (C. hominis TU502 isolate; Calibr Crypto Panel 2, read-out: C. hominis Spot Count EC90): 278000 nM; EC50 (C. hominis TU502 isolate; [24]): 8220 nM; EC90 (C. hominis TU502 isolate; [25]): 14200 nM; EC50 (C. hominis TU502 isolate; [26]): 6030 nM; EC90 (C. hominis TU502 isolate; [27]): 12300 nM; EC50 ([3]; Calibr Crypto Panel 2): 9040 nM; EC90 ([3]; Calibr Crypto Panel 2): 15700 nM; EC50 [4, 28]: 11300 nM; EC50 [4, 29]: 6050 nM; EC90 [4, 30]: 19600 nM; EC90 [4, 31]: 12000 nM; EC50 ([4]; Calibr Crypto Panel 2, read-out: Bunch Grass Farm C. parvum Spot Count EC50): 6990 nM; EC90 ([4]; Calibr Crypto Panel 2, read-out: Bunch Grass Farm C. parvum Spot Count EC90): 16800 nM
COc1ccc(C[C@H](N)C(=O)N[C@H]2[C@@H](O)[C@H](n3cnc4c(N(C)C)ncnc43)O[C@@H]2CO)cc1 [Puromycin] | 3090 | 2810 | 2660 | 2810 | 2970 | 2370 | 3100 | 1840 | 3570 | 730 | 504 | 1900 | 1500 | 165 | 406 | 337 | 1020 | 233 | 1320 | 319 | EC50 [3]: 274 nM; EC90 [3]: 1920 nM; EC50 [4, 18]: 403 nM; EC50 [4, 19]: 274 nM; EC90 [4, 20]: 1140 nM; EC90 [4, 21]: 847 nM; EC50 [4, 22]: 177 nM; EC90 [4, 23]: 398 nM
Cn1ccc2cc3c(cc21)CCN3C(=O)Nc1cccnc1 [SB 206553, reference compound] | – | – | – | – | – | – | – | – | – | – | – | – | – | – | – | – | – | – | – | – | IC50 (5-HT2B): 21 nM
